Data as given in paper PMC7835349 (Communications Biology, 2021).
Several values for one entry are separate records, joined by “and”; a condition that tells them apart may be missing. Equal entries are not always repeated.

Tests used:
[1] = tested on: OCI-LY10 xenograft; assay: OCI-LY10 xenograft efficacy and survival; type: in vivo, C.B-17 SCID mouse; parameters: OCI-LY10 xenograft efficacy, individual animals: unit not given here; settings: for OCI-LY10 xenograft efficacy, individual animals: Acalabrutinib 12.5mpk BID
Procedure: (§1) Female C.B.−17 SCID mice were purchased from Charles River Laboratories. Mice were 5–8 weeks old at the time of tumour implantation. All xenograft studies were conducted at our Association for the Assessment and Accreditation of Laboratory Animal Care accredited facility in Waltham, MA in accordance with ethical regulations described in the guidelines established by the internal Institutional Animal Care and Use Committee. The dendrimer conjugates were formulated in citrate/phosphate buffer pH 5.0, diluted 1:10 with 5% glucose containing 1% w/v Kolliphor HS15, and AZD4320 was formulated in 30% HP-β-CD and dosed as a weekly intravenous (IV) administration at a volume of 5 ml/kg at the indicated doses. Five million RS4;11, five million SUDHL-4 or five million OCI-LY-10 cells were injected subcutaneously in the right flank of mice in a volume of 0.1 ml. Tumour volumes (measured by caliper), animal body weight, and tumor condition were recorded twice weekly for the duration of the study. The tumour volume was calculated (taking length to be the longest diameter across the tumour and width to be the corresponding perpendicular diameter) using the formula: length (mm) x width (mm)^2/0.52. For efficacy studies, mice were randomized based on tumour volumes using stratified sampling and enrolled into control and treatment groups. Tumour growth inhibition from the start of treatment was quantified by measuring the difference in tumour volume between control and treated groups. Survival analysis was evaluated using Mantel-Cox test. Tumours were also taken for bioanalysis.

[2] = tested on: SUDHL-4 xenograft; assay: SUDHL-4 xenograft efficacy and survival; type: in vivo, C.B-17 SCID mouse; settings: Rituxan (Rtx) 10 mg/kg
Procedure: as §1

| Molecule | OCI-LY10 xenograft efficacy, individual animals ([1]; day 18) | OCI-LY10 xenograft efficacy, individual animals ([1]; day 21) | OCI-LY10 xenograft efficacy, individual animals ([1]; day 25) | OCI-LY10 xenograft efficacy, individual animals ([1]; day 28) | OCI-LY10 xenograft efficacy, individual animals ([1]; day 32) | OCI-LY10 xenograft efficacy, individual animals ([1]; day 35) | OCI-LY10 xenograft efficacy, individual animals ([1]; day 39) | OCI-LY10 xenograft efficacy, individual animals ([1]; day 42) | monotherapy activity ([1]; OCI-LY10 DLBCL model) | SUDHL-4 xenograft efficacy, Geo Mean ([2]; day 1) | SUDHL-4 xenograft efficacy, Geo Mean ([2]; day 5) | SUDHL-4 xenograft efficacy, Geo Mean ([2]; day 9) | SUDHL-4 xenograft efficacy, Geo Mean ([2]; day 12) | SUDHL-4 xenograft efficacy, Geo Mean ([2]; day 16) | SUDHL-4 xenograft efficacy, Geo Mean ([2]; day 19) | SUDHL-4 xenograft efficacy, Geo Mean ([2]; day 23) | SUDHL-4 xenograft efficacy, Geo Mean ([2]; day 26) | SUDHL-4 xenograft efficacy, Geo Mean ([2]; day 29) | SUDHL-4 xenograft efficacy, Geo Mean ([2]; day 32) |
| --- | --- | --- | --- | --- | --- | --- | --- | --- | --- | --- | --- | --- | --- | --- | --- | --- | --- | --- | --- |
| CC#CC(=O)N1CCC[C@H]1c1nc(-c2ccc(C(=O)Nc3ccccn3)cc2)c2c(N)nccn12 [acalabrutinib, reference compound] | 127 and 164 and 248 and 101 and 210 and 188 and 174 and 141 | 221 and 332 and 538 and 104 and 333 and 303 and 198 and 259 | 299 and 256 and 495 and 88 and 284 and 527 and 334 and 162 | 232 and 311 and 519 and 141 and 436 and 334 and 361 and 191 | 363 and 375 and 663 and 150 and 384 and 401 and 347 and 391 | 402 and 443 and 532 and 209 and 471 and 429 and 383 and 277 | 393 and 553 and 891 and 198 and 472 and 366 and 578 and 547 | 405 and 474 and 589 and 106 and 385 and 656 and 416 and 224 | neither agent showed any demonstrable monotherapy activity | – | – | – | – | – | – | – | – | – | – |
| Rituxan (Rtx) | – | – | – | – | – | – | – | – | – | 207.17 | 194.343 | 229.272 | 236.829 | 277.244 | 341.784 | 461.782 | 534.569 | 692.979 | 702.104 |
